Experiments:
[1] = biological target: T1, fatty-acid amide hydrolase (FAAH) (Homo sapiens, UniProt O00519); test: FAAH inhibitor screening assay kit (Cayman […]), percent inhibition at […]; format: biochemical
T1 sequence (O00519 1-579): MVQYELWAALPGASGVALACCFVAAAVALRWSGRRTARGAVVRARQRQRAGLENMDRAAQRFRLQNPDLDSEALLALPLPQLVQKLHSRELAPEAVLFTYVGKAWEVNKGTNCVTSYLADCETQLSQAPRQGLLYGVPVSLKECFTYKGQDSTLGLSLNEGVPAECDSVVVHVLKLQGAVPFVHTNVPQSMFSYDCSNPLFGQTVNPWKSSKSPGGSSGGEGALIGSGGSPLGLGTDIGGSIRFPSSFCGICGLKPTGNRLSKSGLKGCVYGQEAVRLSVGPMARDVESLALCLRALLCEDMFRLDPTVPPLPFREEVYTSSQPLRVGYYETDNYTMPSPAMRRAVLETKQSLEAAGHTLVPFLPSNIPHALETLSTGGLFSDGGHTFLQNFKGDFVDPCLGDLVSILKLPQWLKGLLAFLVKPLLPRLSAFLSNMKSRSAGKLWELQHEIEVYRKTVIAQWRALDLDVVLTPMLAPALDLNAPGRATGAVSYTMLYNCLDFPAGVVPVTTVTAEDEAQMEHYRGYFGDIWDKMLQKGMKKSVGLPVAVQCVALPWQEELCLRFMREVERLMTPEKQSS

[2] = biological target: T1, fatty-acid amide hydrolase (FAAH); test: FAAH inhibitor screening assay kit (Cayman […]), dose-response […]; format: biochemical

IC50 [2] | SMILES | inhibition at 10 µM [1]
 | O=C(Oc1ccc([N+](=O)[O-])cc1)N1CCN(Cc2cccc(Oc3ccccc3)c2)CC1 [JZL195] | 88 ± 1.26%
1060 nM | O=c1c(O)c(-c2ccc(O)cc2)oc2cc(O)cc(O)c12 [kaempferol] | 

— PMC7587337, “Kaempferol Facilitated Extinction Learning in Contextual Fear Conditioned Rats via Inhibition of Fatty-Acid Amide Hydrolase” (Molecules, 2020)
